Measured values published in patent US9307766B2, “Isoxazoline derivatives as insecticidal compounds” (Syngenta Participations AG, priority 2011, dated 2016).

Legend:
Format in all cases: in vivo
Spodoptera littoralis = Spodoptera littoralis (Egyptian cotton leafworm) leaf disc spray test; conditions: foliar, 72 h, 200 ppm sprayed on cotton leaf discs, L1 larvae, mortality, feeding behavior, growth regulation 3 days after treatment
Text: Spodoptera littoralis (Egyptian Cotton Leafworm):
Cotton leaf discs were placed on agar in a 24-well microtiter plate and sprayed with test solutions at an application rate of 200 ppm. After drying, the leaf discs were infested with 5 L1 larvae. The samples were checked for mortality, feeding behavior, and growth regulation 3 days after treatment (DAT).

Plutella xylostella = Plutella xylostella (diamond back moth) artificial diet test; conditions: 144 h, 200 ppm (concentration in well 18 ppm) on artificial diet, L2 larvae, larval mortality and growth regulation after 6 days
Procedure: Plutella xylostella (Diamond Back Moth):
(§1) 24-well microtiter plate (MTP) with artificial diet was treated with test solutions at an application rate of 200 ppm (concentration in well 18 ppm) by pipetting. After drying, the MTP's were infested with L2 larvae (7-12 per well). After an incubation period of 6 days, samples were checked for larval mortality and growth regulation.

Thrips tabaci = Thrips tabaci (onion thrips) leaf disc spray test; conditions: foliar, 168 h, 200 ppm sprayed on sunflower leaf discs, thrip population of mixed ages, mortality after 7 days
Procedure: Thrips tabaci (Onion Thrips):
Sunflower leaf discs were placed on agar in a 24-well microtiter plate and sprayed with test solutions at an application rate of 200 ppm. After drying, the leaf discs were infested with a thrip population of mixed ages. After an incubation period of 7 days, samples were checked for mortality.

Diabrotica balteata = Diabrotica balteata (corn root worm) artificial diet test; conditions: 120 h, 200 ppm (concentration in well 18 ppm) on artificial diet, L2 larvae, larval mortality and growth regulation after 5 days
Procedure: Diabrotica balteata (Corn Root Worm):
as §1, with “A 24-well” for “24-well”, “(6-10” for “(7-12”, “5” for “6”

Heliothis virescens = Heliothis virescens (tobacco budworm) egg test on artificial diet; conditions: 96 h, 200 ppm (concentration in well 18 ppm) by pipetting, eggs 0-24 h old on artificial diet, egg mortality, larval mortality, growth regulation after 4 days
Procedure: Heliothis virescens (Tobacco Budworm):
Eggs (0-24 h old) were placed in 24-well microtiter plate on artificial diet and treated with test solutions at an application rate of 200 ppm (concentration in well 18 ppm) by pipetting. After an incubation period of 4 days, samples were checked for egg mortality, larval mortality, and growth regulation.

Tetranychus urticae = Tetranychus urticae (two-spotted spider mite) leaf disc spray test; conditions: foliar, 192 h, 200 ppm sprayed on bean leaf discs, mite populations of mixed ages, egg, larval and adult mortality 8 days later
Text: Tetranychus urticae (Two-Spotted Spider Mite):
Bean leaf discs on agar in 24-well microtiter plates were sprayed with test solutions at an application rate of 200 ppm. After drying, the leaf discs are infested with mite populations of mixed ages. 8 days later, discs are checked for egg mortality, larval mortality, and adult mortality.

Measured: pest or weed control at 200 ppm

O=C(NC1CS(=O)(=O)C1)c1ccc(C2=NOC(c3cc(Cl)cc(Cl)c3)(C(F)(F)F)C2Br)c2ccccc12 (stereo not drawn) [Compound D01, 4-[4-bromo-5-(3,5-dichlorophenyl)-5-(trifluoromethyl)-4H-isoxazol-3-yl]-N-(1,1-dioxothietan-3-yl)naphthalene-1-carboxamide]
≥ 80%: all assays above

CC1(NC(=O)c2ccc(C3=NOC(c4cc(Cl)cc(Cl)c4)(C(F)(F)F)C3Br)c3ccccc23)CSC1 (stereo not drawn) [Compound D02, 4-[4-bromo-5-(3,5-dichlorophenyl)-5-(trifluoromethyl)-4H-isoxazol-3-yl]-N-(3-methylthietan-3-yl)naphthalene-1-carboxamide]
≥ 80%: all assays above

O=C(NC1C[S+]([O-])C1)c1ccc(C2=NOC(c3cc(Cl)cc(Cl)c3)(C(F)(F)F)C2Br)c2ccccc12 (stereo not drawn) [Compound D03, 4-[4-bromo-5-(3,5-dichlorophenyl)-5-(trifluoromethyl)-4H-isoxazol-3-yl]-N-(1-oxothietan-3-yl)naphthalene-1-carboxamide]
≥ 80%: all assays above

O=C(NC1CSC1)c1ccc(C2=NOC(c3cc(Cl)cc(Cl)c3)(C(F)(F)F)C2Br)c2ccccc12 (stereo not drawn) [Compound D04, 4-[4-bromo-5-(3,5-dichlorophenyl)-5-(trifluoromethyl)-4H-isoxazol-3-yl]-N-(thietan-3-yl)naphthalene-1-carboxamide]
≥ 80%: all assays above

O=C(CNC(=O)c1ccc(C2=NOC(c3cc(Cl)cc(Cl)c3)(C(F)(F)F)C2)c2ccccc12)NC1CS(=O)(=O)C1 (stereo not drawn) [Compound D05, 4-[5-(3,5-dichlorophenyl)-5-(trifluoromethyl)-4H-isoxazol-3-yl]-N-[2-[(1,1-dioxothietan-3-yl)amino]-2-oxo-ethyl]naphthalene-1-carboxamide]
≥ 80%: all assays above

CC1(NC(=O)CNC(=O)c2ccc(C3=NOC(c4cc(Cl)cc(Cl)c4)(C(F)(F)F)C3)c3ccccc23)CSC1 (stereo not drawn) [Compound D06, 4-[5-(3,5-dichlorophenyl)-5-(trifluoromethyl)-4H-isoxazol-3-yl]-N-[2-[(3-methylthietan-3-yl)amino]-2-oxo-ethyl]naphthalene-1-carboxamide]
≥ 80%: all assays above

O=C(CNC(=O)c1ccc(C2=NOC(c3cc(Cl)cc(Cl)c3)(C(F)(F)F)C2)c2ccccc12)NC1C[S+]([O-])C1 (stereo not drawn) [Compound D07, 4-[5-(3,5-dichlorophenyl)-5-(trifluoromethyl)-4H-isoxazol-3-yl]-N-[2-oxo-2-[(1-oxothietan-3-yl)amino]ethyl]naphthalene-1-carboxamide]
≥ 80%: Spodoptera littoralis | Plutella xylostella | Thrips tabaci | Tetranychus urticae

O=C(CNC(=O)c1ccc(C2=NOC(c3cc(Cl)cc(Cl)c3)(C(F)(F)F)C2)c2ccccc12)NC1CSC1 (stereo not drawn) [Compound D08, 4-[5-(3,5-dichlorophenyl)-5-(trifluoromethyl)-4H-isoxazol-3-yl]-N-[2-oxo-2-(thietan-3-ylamino)ethyl]naphthalene-1-carboxamide]
not listed: Heliothis virescens
≥ 80%: all other assays above

O=C(NC1CS(=O)(=O)C1)c1ccc(C2=NOC(c3cc(Cl)cc(Cl)c3)(C(F)(F)F)C2)c2ncccc12 (stereo not drawn) [Compound D09, 8-[5-(3,5-dichlorophenyl)-5-(trifluoromethyl)-4H-isoxazol-3-yl]-N-(1,1-dioxothietan-3-yl)quinoline-5-carboxamide]
≥ 80%: Spodoptera littoralis | Plutella xylostella

O=C(NC1CSC1)c1ccc(C2=NOC(c3cc(Cl)cc(Cl)c3)(C(F)(F)F)C2)c2ncccc12 (stereo not drawn) [Compound D10, 8-[5-(3,5-dichlorophenyl)-5-(trifluoromethyl)-4H-isoxazol-3-yl]-N-(thietan-3-yl)quinoline-5-carboxamide]
≥ 80%: Spodoptera littoralis | Plutella xylostella | Diabrotica balteata | Heliothis virescens

O=C(NC1C[S+]([O-])C1)c1ccc(C2=NOC(c3cc(Cl)cc(Cl)c3)(C(F)(F)F)C2)c2ncccc12 (stereo not drawn) [Compound D11, 8-[5-(3,5-dichlorophenyl)-5-(trifluoromethyl)-4H-isoxazol-3-yl]-N-(1-oxothietan-3-yl)quinoline-5-carboxamide]
≥ 80%: Spodoptera littoralis | Plutella xylostella | Heliothis virescens

O=C(NC1CSC1)c1ccc(C2=NOC(c3cc(Cl)cc(Cl)c3)(C(F)(F)F)C2)c2cccnc12 (stereo not drawn) [Compound D12, 5-[5-(3,5-dichlorophenyl)-5-(trifluoromethyl)-4H-isoxazol-3-yl]-N-(thietan-3-yl)quinoline-8-carboxamide]
≥ 80%: all assays above

O=C(NC1CS(=O)(=O)C1)c1cnc(C2=NOC(c3cc(Cl)cc(Cl)c3)(C(F)(F)F)C2)c2ccccc12 (stereo not drawn) [Compound D13, 1-[5-(3,5-dichlorophenyl)-5-(trifluoromethyl)-4H-isoxazol-3-yl]-N-(1,1-dioxothietan-3-yl)isoquinoline-4-carboxamide]
≥ 80%: Spodoptera littoralis | Plutella xylostella | Diabrotica balteata | Heliothis virescens

CC1(NC(=O)c2cnc(C3=NOC(c4cc(Cl)cc(Cl)c4)(C(F)(F)F)C3)c3ccccc23)CSC1 (stereo not drawn) [Compound D14, 1-[5-(3,5-dichlorophenyl)-5-(trifluoromethyl)-4H-isoxazol-3-yl]-N-(3-methylthietan-3-yl)isoquinoline-4-carboxamide]
not listed: Spodoptera littoralis
≥ 80%: all other assays above

O=C(NC1CSC1)c1cnc(C2=NOC(c3cc(Cl)cc(Cl)c3)(C(F)(F)F)C2)c2ccccc12 (stereo not drawn) [Compound D15, 1-[5-(3,5-dichlorophenyl)-5-(trifluoromethyl)-4H-isoxazol-3-yl]-N-(thietan-3-yl)isoquinoline-4-carboxamide]
≥ 80%: all assays above

O=C(NC1C[S+]([O-])C1)c1cnc(C2=NOC(c3cc(Cl)cc(Cl)c3)(C(F)(F)F)C2)c2ccccc12 (stereo not drawn) [Compound D16, 1-[5-(3,5-dichlorophenyl)-5-(trifluoromethyl)-4H-isoxazol-3-yl]-N-(1-oxothietan-3-yl)isoquinoline-4-carboxamide]
≥ 80%: all assays above
